Assay results from PubChem BioAssay AID1963826 (Molecular Pharmacology Branch, DTP, NCI, 2024).

System: 926638-142-R-J1-PDC complex spheroid viability
Assay: Anticancer human tumor 926638-142-R-J1-PDC patient-derived endometrial carcinoma cell line growth inhibition [POLQ]
Conditions: for IC50: curve of first compound; for viability, T/C: stronger effect = lower value
Summary of the method: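 Patient-derived tumour cells were co-cultured with HUVEC and mesenchymal stem cells as multicellular spheroids at 37 °C. They were treated with POLQ inhibitors (novobiocin, ART-558, RP6685) alone or combined with other agents. Top concentrations were at or near clinical Cmax (otherwise 10 microM; SN-38 at 1 microM), decreasing in half-log steps.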

[1] = second compound 0.0316 µM, first compound 0.0316 µM
[2] = second compound 0.0316 µM, first compound 0.1 µM
[3] = second compound 0.0316 µM, first compound 0.316 µM
[4] = second compound 0.0316 µM, first compound 1 µM
[5] = second compound 0.0316 µM, first compound 3.16 µM
[6] = second compound 0.0316 µM, first compound 10 µM
[7] = second compound 0.1 µM, first compound 0.0316 µM
[8] = second compound 0.1 µM, first compound 0.1 µM
[9] = second compound 0.1 µM, first compound 0.316 µM
[10] = second compound 0.1 µM, first compound 1 µM
[11] = second compound 0.1 µM, first compound 3.16 µM
[12] = second compound 0.1 µM, first compound 10 µM
[13] = second compound 0.316 µM, first compound 0.0316 µM
[14] = second compound 0.316 µM, first compound 0.1 µM
[15] = second compound 0.316 µM, first compound 0.316 µM
[16] = second compound 0.316 µM, first compound 1 µM
[17] = second compound 0.316 µM, first compound 3.16 µM
[18] = second compound 0.316 µM, first compound 10 µM
[19] = second compound 1 µM, first compound 0.0316 µM
[20] = second compound 1 µM, first compound 0.1 µM
[21] = second compound 1 µM, first compound 0.316 µM
[22] = second compound 1 µM, first compound 1 µM
[23] = second compound 1 µM, first compound 3.16 µM
[24] = second compound 1 µM, first compound 10 µM
[25] = second compound 3.16 µM, first compound 0.0316 µM
[26] = second compound 3.16 µM, first compound 0.1 µM
[27] = second compound 3.16 µM, first compound 0.316 µM
[28] = second compound 3.16 µM, first compound 1 µM
[29] = second compound 3.16 µM, first compound 3.16 µM
[30] = second compound 3.16 µM, first compound 10 µM
[31] = second compound 10 µM, first compound 0.0316 µM
[32] = second compound 10 µM, first compound 0.1 µM
[33] = second compound 10 µM, first compound 0.316 µM
[34] = second compound 10 µM, first compound 1 µM
[35] = second compound 10 µM, first compound 3.16 µM
[36] = second compound 10 µM, first compound 10 µM
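Further: spheroids exposed to drugs for one week before readout.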
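Wherever viability, T/C is given: percent viability relative to DMSO vehicle control wells set as 100%.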

## CCc1cc2c(N3CCc4c(cc(Cn5ccnc5)cc4-c4cn(C)nc4C(F)(F)F)C3=O)cc(C)nc2c(OC)n1 + Nc1ccc(C#CCN(C(=O)Cc2ncc(C(F)(F)F)cc2C(F)(F)F)c2ccc(F)cc2)nn1
Second compound 0.0316 µM
  IC50: 1130 nM
Second compound 0.1 µM
  IC50: 426 nM
Second compound 0.316 µM
  IC50: 829 nM
Second compound 1 µM
  IC50: 478 nM
Second compound 3.16 µM
  IC50: 728 nM
Second compound 10 µM
  IC50: 503 nM
[1]
  viability, T/C: 86.9%
[2]
  viability, T/C: 66.6%
[3]
  viability, T/C: 65.4%
[4]
  viability, T/C: 43.6%
[5]
  viability, T/C: 51.3%
[6]
  viability, T/C: 33.6%
[7]
  viability, T/C: 90.7%
[8]
  viability, T/C: 66.7%
[9]
  viability, T/C: 52.7%
[10]
  viability, T/C: 40.9%
[11]
  viability, T/C: 42.1%
[12]
  viability, T/C: 28.2%
[13]
  viability, T/C: 83%
[14]
  viability, T/C: 70.4%
[15]
  viability, T/C: 55%
[16]
  viability, T/C: 47.8%
[17]
  viability, T/C: 44.1%
[18]
  viability, T/C: 27.6%
[19]
  viability, T/C: 69.3%
[20]
  viability, T/C: 69.8%
[21]
  viability, T/C: 56.6%
[22]
  viability, T/C: 37.9%
[23]
  viability, T/C: 43.5%
[24]
  viability, T/C: 30.1%
[25]
  viability, T/C: 76.3%
[26]
  viability, T/C: 58.2%
[27]
  viability, T/C: 57%
[28]
  viability, T/C: 47.2%
[29]
  viability, T/C: 46.9%
[30]
  viability, T/C: 31.6%
[31]
  viability, T/C: 60.2%
[32]
  viability, T/C: 63.8%
[33]
  viability, T/C: 53.8%
[34]
  viability, T/C: 39.6%
[35]
  viability, T/C: 42%
[36]
  viability, T/C: 27.2%

## CCc1cc2c(N3CCc4c(cc(Cn5ccnc5)cc4-c4cn(C)nc4C(F)(F)F)C3=O)ccnc2c(OC)n1 + Nc1ccc(C#CCN(C(=O)Cc2ncc(C(F)(F)F)cc2C(F)(F)F)c2ccc(F)cc2)nn1
Second compound 0.0316 µM
  IC50: 1060 nM
Second compound 0.1 µM
  IC50: 879 nM
Second compound 0.316 µM
  IC50: 713 nM
Second compound 1 µM
  IC50: 931 nM
Second compound 3.16 µM
  IC50: 578 nM
Second compound 10 µM
  IC50: 757 nM
[1]
  viability, T/C: 88.5%
[2]
  viability, T/C: 73.4%
[3]
  viability, T/C: 59.6%
[4]
  viability, T/C: 54.3%
[5]
  viability, T/C: 38.7%
[6]
  viability, T/C: 26.6%
[7]
  viability, T/C: 81.5%
[8]
  viability, T/C: 77.6%
[9]
  viability, T/C: 59.8%
[10]
  viability, T/C: 49.8%
[11]
  viability, T/C: 36.8%
[12]
  viability, T/C: 29.6%
[13]
  viability, T/C: 88.8%
[14]
  viability, T/C: 73.4%
[15]
  viability, T/C: 53.4%
[16]
  viability, T/C: 48.1%
[17]
  viability, T/C: 41.2%
[18]
  viability, T/C: 29.4%
[19]
  viability, T/C: 83.7%
[20]
  viability, T/C: 67.3%
[21]
  viability, T/C: 62.4%
[22]
  viability, T/C: 45.3%
[23]
  viability, T/C: 44.8%
[24]
  viability, T/C: 33.3%
[25]
  viability, T/C: 68.3%
[26]
  viability, T/C: 70.5%
[27]
  viability, T/C: 58%
[28]
  viability, T/C: 41.7%
[29]
  viability, T/C: 38.2%
[30]
  viability, T/C: 31.7%
[31]
  viability, T/C: 86.4%
[32]
  viability, T/C: 67.2%
[33]
  viability, T/C: 59.8%
[34]
  viability, T/C: 48.5%
[35]
  viability, T/C: 37.3%
[36]
  viability, T/C: 32.4%

## COc1cc2cc(C(=O)CCC(=O)O)sc2cc1OC + Nc1ccc(C#CCN(C(=O)Cc2ncc(C(F)(F)F)cc2C(F)(F)F)c2ccc(F)cc2)nn1
Second compound 0.0316 µM
  IC50: > 10000 nM
Second compound 0.1 µM
  IC50: > 10000 nM
Second compound 0.316 µM
  IC50: > 10000 nM
Second compound 1 µM
  IC50: > 10000 nM
Second compound 3.16 µM
  IC50: > 10000 nM
Second compound 10 µM
  IC50: > 10000 nM
[1]
  viability, T/C: 101%
[2]
  viability, T/C: 99.4%
[3]
  viability, T/C: 104%
[4]
  viability, T/C: 98.5%
[5]
  viability, T/C: 104%
[6]
  viability, T/C: 70%
[7]
  viability, T/C: 111%
[8]
  viability, T/C: 97.8%
[9]
  viability, T/C: 91.1%
[10]
  viability, T/C: 96.4%
[11]
  viability, T/C: 104%
[12]
  viability, T/C: 103%
[13]
  viability, T/C: 110%
[14]
  viability, T/C: 105%
[15]
  viability, T/C: 107%
[16]
  viability, T/C: 102%
[17]
  viability, T/C: 112%
[18]
  viability, T/C: 99.9%
[19]
  viability, T/C: 111%
[20]
  viability, T/C: 108%
[21]
  viability, T/C: 90.4%
[22]
  viability, T/C: 101%
[23]
  viability, T/C: 112%
[24]
  viability, T/C: 85.1%
[25]
  viability, T/C: 110%
[26]
  viability, T/C: 93.9%
[27]
  viability, T/C: 105%
[28]
  viability, T/C: 101%
[29]
  viability, T/C: 104%
[30]
  viability, T/C: 88.4%
[31]
  viability, T/C: 89.3%
[32]
  viability, T/C: 101%
[33]
  viability, T/C: 83.4%
[34]
  viability, T/C: 85.2%
[35]
  viability, T/C: 96.4%
[36]
  viability, T/C: 87.8%

## O=C(Nc1ccc(O)c(NS(=O)(=O)c2ccc(F)cc2)c1)c1ccc(-c2ccccc2)cc1 + Nc1ccc(C#CCN(C(=O)Cc2ncc(C(F)(F)F)cc2C(F)(F)F)c2ccc(F)cc2)nn1
Second compound 0.0316 µM
  IC50: > 10000 nM
Second compound 0.1 µM
  IC50: > 10000 nM
Second compound 0.316 µM
  IC50: > 10000 nM
Second compound 1 µM
  IC50: > 10000 nM
Second compound 3.16 µM
  IC50: > 10000 nM
Second compound 10 µM
  IC50: > 10000 nM
[1]
  viability, T/C: 106%
[2]
  viability, T/C: 101%
[3]
  viability, T/C: 80.8%
[4]
  viability, T/C: 110%
[5]
  viability, T/C: 95.7%
[6]
  viability, T/C: 82.8%
[7]
  viability, T/C: 105%
[8]
  viability, T/C: 103%
[9]
  viability, T/C: 107%
[10]
  viability, T/C: 108%
[11]
  viability, T/C: 96.4%
[12]
  viability, T/C: 81.3%
[13]
  viability, T/C: 114%
[14]
  viability, T/C: 102%
[15]
  viability, T/C: 99.5%
[16]
  viability, T/C: 116%
[17]
  viability, T/C: 109%
[18]
  viability, T/C: 81.1%
[19]
  viability, T/C: 98%
[20]
  viability, T/C: 106%
[21]
  viability, T/C: 103%
[22]
  viability, T/C: 105%
[23]
  viability, T/C: 105%
[24]
  viability, T/C: 71.9%
[25]
  viability, T/C: 100%
[26]
  viability, T/C: 82.4%
[27]
  viability, T/C: 96.1%
[28]
  viability, T/C: 100%
[29]
  viability, T/C: 106%
[30]
  viability, T/C: 67.6%
[31]
  viability, T/C: 92.2%
[32]
  viability, T/C: 92.8%
[33]
  viability, T/C: 89.5%
[34]
  viability, T/C: 104%
[35]
  viability, T/C: 104%
[36]
  viability, T/C: 72.5%
